The values below come from patent publication US9266877B2, “Apoptosis-inducing agents for the treatment of cancer and immune and autoimmune diseases” (priority 2011, dated 2016).

Structures are written as SMILES. Where two headings read alike, the source gives them in different places. Bounds are passed on as bounds.

Assay [1] relates to FL5.12 cells transfected with Bcl-XL. The assay is described as follows: FL5.12 Cellular Assay (cell viability, CellTiter-Glo). Type of assay: cell-based, mouse.
Procedure: For assaying the compound activity, the cells were exchanged into an IL-3-depleted deprivation media, which was identical to the growth media except for the absence of FBS and WEHI-3B conditional media, for 2 days. Then the cells were exchanged to 3% FBS assay media (RPMI with 2 mM glutamine, 1% 100 mM sodium pyruvate, 2% 1 M HEPES, 4 μL/L of β-mercaptoethanol, 1% penicillin-streptomycin, 3% FBS). Compounds in series dilutions were added, and the cells were cultured for 24 hours. […] Cell viability was assayed using the CellTiter-Glo assay (Promega Corp., Madison, Wis.) according to the manufacturer instructions. Individual determinations were the result of duplicate values.
For another assay, the target named is Bcl-xL (Homo sapiens (Human), UniProt Q07817). The assay is described as follows: Time Resolved-Fluorescence Resonance Energy Transfer (TR-FRET) binding assay, competition with F-Bak.
[2] abbreviates: Mus musculus, FL5.12, 24 h, read-out: FL5.12 Bcl-xL, IL3, EC 50 (nM).
[3] abbreviates: mouse FL5.12 cells transfected with Bcl-XL, IL-3-depleted, 3% FBS assay media, 24 hours, read-out: FL5.12 Bcl-xL, IL3, EC 50.

Bcl-xL, sequence (Q07817 whole entry): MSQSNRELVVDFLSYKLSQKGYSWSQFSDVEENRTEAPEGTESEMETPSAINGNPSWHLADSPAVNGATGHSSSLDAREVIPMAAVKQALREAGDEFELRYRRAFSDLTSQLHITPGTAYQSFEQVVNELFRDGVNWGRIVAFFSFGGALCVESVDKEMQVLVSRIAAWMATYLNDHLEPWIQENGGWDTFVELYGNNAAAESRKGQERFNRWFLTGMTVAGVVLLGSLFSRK

As for `Cc1c(OC2CCCC(C)(C)C2)cccc1-c1ccc(N2CCc3cccc(C(=O)Nc4nc5ccccc5s4)c3C2)nc1C(=O)O` (centres unmarked) [Example 121, 6-[8-(1,3-benzothiazol-2-ylcarbamoyl)-3,4-dihydroisoquinolin-2(1H)-yl]-3-{3-[(3,3-dimethylcyclohexyl)oxy]-2-methylphenyl}pyridine-2-carboxylic acid], the EC50 in assay [1] (setting [2]) worked out at 87 nM.

For the compound `O=C(Nc1nc2ccccc2s1)c1cccc2c1CN(c1ccc(-c3cnn(Cc4cccc(O)c4)c3)c(C(=O)O)n1)CC2` [Example 17, 6-[8-(1,3-benzothiazol-2-ylcarbamoyl)-3,4-dihydroisoquinolin-2(1H)-yl]-3-[1-(3-hydroxybenzyl)-1H-pyrazol-4-yl]pyridine-2-carboxylic acid], the EC50 in assay [1] (setting [3]) was more than 1000 nM.

For the compound `O=C(Nc1nc2ccccc2s1)c1cccc2c1CN(c1ccc(-c3cnn(Cc4ccccn4)c3)c(C(=O)O)n1)CC2` [Example 26, 6-[8-(1,3-benzothiazol-2-ylcarbamoyl)-3,4-dihydroisoquinolin-2(1H)-yl]-3-[1-(pyridin-2-ylmethyl)-1H-pyrazol-4-yl]pyridine-2-carboxylic acid], in assay [1] (setting [3]), the EC50 was more than 1000 nM.

For `COCCCC1(Cn2ncc(-c3ccc(N4CCc5cccc(C(=O)Nc6nc7ccccc7s6)c5C4)nc3C(=O)O)c2C)CCCCC1` [Example 97, 6-[8-(1,3-benzothiazol-2-ylcarbamoyl)-3,4-dihydroisoquinolin-2(1H)-yl]-3-(1-{[1-(3-methoxypropyl)cyclohexyl]methyl}-5-methyl-1H-pyrazol-4-yl)pyridine-2-carboxylic acid], the EC50 in assay [1] (setting [3]) was less than 1 nM.

With `O=C(Nc1nc2ccccc2s1)c1cccc2c1CN(c1ccc(-c3cnn(Cc4ccc(Cl)cc4)c3)c(C(=O)O)n1)CC2` [Example 15, 6-[8-(1,3-benzothiazol-2-ylcarbamoyl)-3,4-dihydroisoquinolin-2(1H)-yl]-3-[1-(4-chlorobenzyl)-1H-pyrazol-4-yl]pyridine-2-carboxylic acid], the EC50 in assay [1] (setting [3]) was more than 1000 nM.

As to `O=C(Nc1nc2ccccc2s1)c1cccc2c1CN(c1ccc(-c3cccc(Oc4ccccc4)c3)c(C(=O)O)n1)CC2` [Example 103, 6-[8-(1,3-benzothiazol-2-ylcarbamoyl)-3,4-dihydroisoquinolin-2(1H)-yl]-3-(3-phenoxyphenyl)pyridine-2-carboxylic acid], the EC50 in assay [1] (setting [3]) is more than 1000 nM.

As to `CC(C)(C)Cn1cc(-c2ccc(N3CCc4cccc(C(=O)Nc5nc6ccccc6s5)c4C3)nc2C(=O)O)cn1` [Example 59, 6-[8-(1,3-benzothiazol-2-ylcarbamoyl)-3,4-dihydroisoquinolin-2(1H)-yl]-3-[1-(2,2-dimethylpropyl)-1H-pyrazol-4-yl]pyridine-2-carboxylic acid], the EC50 in assay [1] (setting [3]) is more than 1000 nM.

As for `N#Cc1cccc(Cn2cc(-c3ccc(N4CCc5cccc(C(=O)Nc6nc7ccccc7s6)c5C4)nc3C(=O)O)cn2)c1` [Example 24, 6-[8-(1,3-benzothiazol-2-ylcarbamoyl)-3,4-dihydroisoquinolin-2(1H)-yl]-3-[1-(3-cyanobenzyl)-1H-pyrazol-4-yl]pyridine-2-carboxylic acid], in assay [1] (setting [3]), the EC50 was more than 1000 nM.

As for `O=C(Nc1nc2cccc(Cl)c2s1)c1cccc2c1CN(c1ccc(-c3cnn(Cc4ccccc4)c3)c(C(=O)O)n1)CC2` [Example 21, 3-(1-benzyl-1H-pyrazol-4-yl)-6-{8-[(7-chloro-1,3-benzothiazol-2-yl)carbamoyl]-3,4-dihydroisoquinolin-2(1H)-yl}pyridine-2-carboxylic acid], in assay [1] (setting [3]), the EC50 was more than 1000 nM.

Consider `COc1ccc2nc(NC(=O)c3cccc4c3CN(c3ccc(-c5cnn(Cc6ccccc6)c5)c(C(=O)O)n3)CC4)sc2c1` [Example 11, 3-(1-benzyl-1H-pyrazol-4-yl)-6-{8-[(6-methoxy-1,3-benzothiazol-2-yl)carbamoyl]-3,4-dihydroisoquinolin-2(1H)-yl}pyridine-2-carboxylic acid], for which the EC50 in assay [1] (setting [3]) was more than 1000 nM.

`Cc1c(-c2ccc(N3CCc4cccc(C(=O)Nc5nc6ccccc6s5)c4C3)nc2C(=O)O)cccc1N(C)C1CCCC(C)(C)C1` (centres unmarked) [Example 159, 6-[8-(1,3-benzothiazol-2-ylcarbamoyl)-3,4-dihydroisoquinolin-2(1H)-yl]-3-{3-[(3,3-dimethylcyclohexyl)(methyl)amino]-2-methylphenyl}pyridine-2-carboxylic acid] registered a Ki on Bcl-xL of 0.2 nM.

Regarding `O=C(Nc1nc2ccccc2s1)c1cccc2c1CN(c1ccc(-c3cnn(Cc4cccnc4)c3)c(C(=O)O)n1)CC2` [Example 3, 6-[8-(1,3-benzothiazol-2-ylcarbamoyl)-3,4-dihydroisoquinolin-2(1H)-yl]-3-[1-(pyridin-3-ylmethyl)-1H-pyrazol-4-yl]pyridine-2-carboxylic acid], the EC50 in assay [1] (setting [3]) is more than 1000 nM.

For the compound `O=C(Nc1nc2ccccc2s1)c1cccc2c1CN(c1ccc(-c3cnn(CCc4ccccc4)c3)c(C(=O)O)n1)CC2` [Example 38, 6-[8-(1,3-benzothiazol-2-ylcarbamoyl)-3,4-dihydroisoquinolin-2(1H)-yl]-3-[1-(2-phenylethyl)-1H-pyrazol-4-yl]pyridine-2-carboxylic acid], the EC50 in assay [1] (setting [3]) was more than 1000 nM.

On to `COc1cccc(Cn2cc(-c3ccc(N4CCc5cccc(C(=O)Nc6nc7ccccc7s6)c5C4)nc3C(=O)O)cn2)c1` [Example 14, 6-[8-(1,3-benzothiazol-2-ylcarbamoyl)-3,4-dihydroisoquinolin-2(1H)-yl]-3-[1-(3-methoxybenzyl)-1H-pyrazol-4-yl]pyridine-2-carboxylic acid], for which the EC50 in assay [1] (setting [3]) is more than 1000 nM.

For the compound `Cc1c(-c2ccc(N3CCc4cccc(C(=O)Nc5nc6ccccc6s5)c4C3)nc2C(=O)O)cnn1C[C@@H]1CC[C@@H]2C[C@H]1C2(C)C` [Example 85, 6-[8-(1,3-benzothiazol-2-ylcarbamoyl)-3,4-dihydroisoquinolin-2(1H)-yl]-3-(1-{[(1R,2R,5R)-6,6-dimethylbicyclo[3.1.1]hept-2-yl]methyl}-5-methyl-1H-pyrazol-4-yl)pyridine-2-carboxylic acid], the EC50 in assay [1] (setting [3]) was 12 nM.

`Cc1[nH]c(C#N)c(CC2CCCCC2)c1-c1ccc(N2CCc3cccc(C(=O)Nc4nc5ccccc5s4)c3C2)nc1C(=O)NS(C)(=O)=O` [Example 171, N-(1,3-benzothiazol-2-yl)-2-{5-[5-cyano-4-(cyclohexylmethyl)-2-methyl-1H-pyrrol-3-yl]-6-[(methylsulfonyl)carbamoyl]pyridin-2-yl}-1,2,3,4-tetrahydroisoquinoline-8-carboxamide]: the EC50 in assay [1] (setting [2]) came to 97 nM. At Bcl-xL (competition with F-Bak probe, GST-Bcl-xL, read-out: TR-FRET binding Bcl-xL Ki), the inhibition constant Ki was less than 0.1 nM.
